How the values were obtained:
[1] = biological target: T1, medaka Esr1 (mEsr1) (Oryzias latipes, UniProt P50241); experiment: Medaka Esr1 reporter gene assay, antagonist assay; assay type: cell-based, Japanese medaka (Oryzias latipes)
T1 sequence (P50241 1-620): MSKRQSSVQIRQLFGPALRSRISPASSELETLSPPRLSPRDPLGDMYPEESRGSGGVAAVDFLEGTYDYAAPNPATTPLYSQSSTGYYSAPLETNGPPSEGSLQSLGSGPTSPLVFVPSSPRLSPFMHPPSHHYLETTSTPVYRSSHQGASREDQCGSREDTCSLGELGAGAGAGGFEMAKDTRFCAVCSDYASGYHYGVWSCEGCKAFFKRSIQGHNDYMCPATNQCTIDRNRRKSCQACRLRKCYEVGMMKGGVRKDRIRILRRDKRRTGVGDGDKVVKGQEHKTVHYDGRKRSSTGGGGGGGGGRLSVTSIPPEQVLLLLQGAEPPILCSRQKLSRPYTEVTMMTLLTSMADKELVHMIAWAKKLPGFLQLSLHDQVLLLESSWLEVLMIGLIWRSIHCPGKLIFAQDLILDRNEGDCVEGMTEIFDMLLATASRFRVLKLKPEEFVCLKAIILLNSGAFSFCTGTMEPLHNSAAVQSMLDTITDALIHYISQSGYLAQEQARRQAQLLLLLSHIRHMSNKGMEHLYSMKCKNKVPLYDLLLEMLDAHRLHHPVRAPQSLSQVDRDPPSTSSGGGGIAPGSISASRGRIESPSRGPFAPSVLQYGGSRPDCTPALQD

[2] = test system: Japanese medaka (Oryzias latipes); experiment: Fish Short‐Term Reproduction Assay; assay type: in vivo; details: for LOECREPRO: LOEC on reproduction (fecundity and/or fertility); for minimal effective concentration: Oryzias latipes, 504 h, read-out: LOECmVTG; for LOECTOX: lowest observed effect concentration on mortality; for GSI Female / GSI Male / HSI Female / HSI Male / Length Female / Length Male / Weight Female / Weight Male: completion of exposure
[3] = biological target: T2, medaka ARβ (mArβ) (Oryzias latipes, UniProt D1MV73); experiment: Medaka ARβ reporter gene assay, antagonist assay; assay type: cell-based, Japanese medaka (Oryzias latipes); details: 11‐KT spiked at 50 nM (D)
T2 sequence (D1MV73 1-744): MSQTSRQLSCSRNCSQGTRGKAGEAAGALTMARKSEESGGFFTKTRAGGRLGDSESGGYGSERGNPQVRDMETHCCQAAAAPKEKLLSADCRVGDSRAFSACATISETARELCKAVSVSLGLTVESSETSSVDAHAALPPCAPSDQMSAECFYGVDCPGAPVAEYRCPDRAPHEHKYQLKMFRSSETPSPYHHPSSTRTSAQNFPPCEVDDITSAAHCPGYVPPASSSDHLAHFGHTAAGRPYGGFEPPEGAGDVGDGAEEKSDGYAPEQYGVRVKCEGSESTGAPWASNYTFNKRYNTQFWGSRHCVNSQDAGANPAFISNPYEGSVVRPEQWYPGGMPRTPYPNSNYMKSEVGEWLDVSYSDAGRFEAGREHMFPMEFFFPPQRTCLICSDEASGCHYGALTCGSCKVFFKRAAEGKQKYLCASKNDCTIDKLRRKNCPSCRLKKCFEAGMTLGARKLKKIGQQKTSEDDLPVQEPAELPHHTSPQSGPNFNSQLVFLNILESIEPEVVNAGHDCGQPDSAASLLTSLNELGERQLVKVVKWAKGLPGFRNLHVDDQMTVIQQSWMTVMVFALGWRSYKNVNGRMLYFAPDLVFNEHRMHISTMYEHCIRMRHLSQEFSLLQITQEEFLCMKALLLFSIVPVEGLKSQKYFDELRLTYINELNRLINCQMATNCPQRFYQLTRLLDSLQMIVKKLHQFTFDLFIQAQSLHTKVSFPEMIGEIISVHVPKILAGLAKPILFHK

[4] = biological target: T2, medaka ARβ (mArβ); experiment: Medaka ARβ reporter gene assay, agonist assay; assay type: cell-based, Japanese medaka (Oryzias latipes)
[5] = biological target: T1, medaka Esr1 (mEsr1); experiment: cell-based; design: species or system Japanese medaka (Oryzias latipes); details: for In vitro positive: Esr: mode of action in which EC50 or PC10 was obtained in RGA
[6] = measured concentration 0.0619 μg/L
[7] = measured concentration 0.294 μg/L
[8] = measured concentration 1.30 μg/L
[9] = 9.75 mg/L measured, 21 d, sig. ↓ vs control
[10] = measured concentration 0.357 mg/L
[11] = measured concentration 1.90 mg/L
[12] = measured concentration 9.75 mg/L

Compound: CC(C)C(C(=O)OC(C#N)c1cccc(Oc2ccccc2)c1)c1ccc(Cl)cc1 (stereo not shown) [FV, Fenvalerate]
- Antagonistic activity ([1]; E2 spiked at 0.2 nM (A), MAC = 1.0 × 10^−5 M): NE (MAC = 1.0 × 10^−5 M) ^(A)
- Fertility rate ([2]; 0.0619 μg/L measured, 21 d): 92 ± 3.2%
- Hepatic VTG, female ([2]; 0.0619 μg/L measured, 21 d): 390 ± 68 ng/mg‐liver
- Hepatic VTG, male ([2]; 0.0619 μg/L measured, 21 d): 0.5 ± 0.0 ng/mg‐liver
- Mortality ([2]; 0.0619 μg/L measured, 21 d): 0.0%
- Mortality, number of dead fish ([2]; 0.0619 μg/L measured, 21 d): 0
- Number of fertilized eggs (per female per day) ([2]; 0.0619 μg/L measured, 21 d): 18 ± 2.7
- Number of total eggs (per female per day) ([2]; 0.0619 μg/L measured, 21 d): 19 ± 3.6
- SSC female (joint plates with papillary processes) ([2]; 0.0619 μg/L measured, 21 d): 0 ± 0
- SSC male (joint plates with papillary processes) ([2]; 0.0619 μg/L measured, 21 d): 80 ± 5.6
- Fertility rate ([2]; 0.294 μg/L measured, 21 d): 93 ± 4.3%
- Hepatic VTG, female ([2]; 0.294 μg/L measured, 21 d): 370 ± 212 ng/mg‐liver
- Hepatic VTG, male ([2]; 0.294 μg/L measured, 21 d): 0.5 ± 0.0 ng/mg‐liver
- Mortality ([2]; 0.294 μg/L measured, 21 d): 0.0%
- Mortality, number of dead fish ([2]; 0.294 μg/L measured, 21 d): 0
- Number of fertilized eggs (per female per day) ([2]; 0.294 μg/L measured, 21 d): 20 ± 3.5
- Number of total eggs (per female per day) ([2]; 0.294 μg/L measured, 21 d): 21 ± 3.1
- SSC female (joint plates with papillary processes) ([2]; 0.294 μg/L measured, 21 d): 0 ± 0
- SSC male (joint plates with papillary processes) ([2]; 0.294 μg/L measured, 21 d): 88 ± 7.2
- Fertility rate ([2]; 1.30 μg/L measured, 21 d): 94 ± 2.8%
- Hepatic VTG, female ([2]; 1.30 μg/L measured, 21 d): 237 ± 152 ng/mg‐liver
- Hepatic VTG, male ([2]; 1.30 μg/L measured, 21 d): 0.9 ± 0.4 ng/mg‐liver
- Mortality ([2]; 1.30 μg/L measured, 21 d): 0.0%
- Mortality, number of dead fish ([2]; 1.30 μg/L measured, 21 d): 0
- Number of fertilized eggs (per female per day) ([2]; 1.30 μg/L measured, 21 d): 23 ± 1.7
- Number of total eggs (per female per day) ([2]; 1.30 μg/L measured, 21 d): 24 ± 1.8
- SSC female (joint plates with papillary processes) ([2]; 1.30 μg/L measured, 21 d): 0 ± 0
- SSC male (joint plates with papillary processes) ([2]; 1.30 μg/L measured, 21 d): 83 ± 4.8
- LOECREPRO [2]: ND (>1.30) μg/L
- minimal effective concentration [2]: > 0.0013 µg/mL
- LOECTOX [2]: ND (>1.3) μg/L
- GSI Female [2, 6]: 9.9 ± 0.7%
- GSI Male [2, 6]: 0.75 ± 0.07%
- HSI Female [2, 6]: 4.3 ± 0.70%
- HSI Male [2, 6]: 2.7 ± 0.30%
- Length Female [2, 6]: 33.5 ± 1.1 mm
- Length Male [2, 6]: 33.8 ± 1.4 mm
- Weight Female [2, 6]: 454 ± 36 mg
- Weight Male [2, 6]: 418 ± 51 mg
- GSI Female [2, 7]: 9.7 ± 0.5%
- GSI Male [2, 7]: 0.67 ± 0.11%
- HSI Female [2, 7]: 4.7 ± 0.40%
- HSI Male [2, 7]: 2.3 ± 0.50%
- Length Female [2, 7]: 34.4 ± 0.9 mm
- Length Male [2, 7]: 34.0 ± 0.2 mm
- Weight Female [2, 7]: 484 ± 33 mg
- Weight Male [2, 7]: 422 ± 22 mg
- GSI Female [2, 8]: 10.0 ± 0.1%
- GSI Male [2, 8]: 0.72 ± 0.10%
- HSI Female [2, 8]: 4.4 ± 0.80%
- HSI Male [2, 8]: 2.5 ± 0.20%
- Length Female [2, 8]: 34.1 ± 0.5 mm
- Length Male [2, 8]: 33.9 ± 1.9 mm
- Weight Female [2, 8]: 491 ± 33 mg
- Weight Male [2, 8]: 416 ± 56 mg
- Antagonistic activity ([3]; MAC = 1.0 × 10^−5 M): NE (MAC = 1.0 × 10^−5 M)^(D)
- Agonistic activity ([4]; MAC = 1.0 × 10^−5 M): NE (MAC = 1.0 × 10^−5 M)
- EC50 [5]: 2.4 µM
- In vitro positive: Esr [5]: Esr

Compound: COC(=O)c1ccc(O)cc1 [MPB, 4‐Hydroxybenzoate methyl]
- Antagonistic activity ([1]; E2 spiked at 1.0 nM (B), MAC = 1.0 × 10^−4 M): NE (MAC = 1.0 × 10^−4 M)^(B)
- Fertility rate ([2]; 0.357 mg/L measured, 21 d): 93 ± 2.9%
- Hepatic VTG, female ([2]; 0.357 mg/L measured, 21 d): 3,450 ± 724 ng/mg‐liver
- Hepatic VTG, male ([2]; 0.357 mg/L measured, 21 d): 1.7 ± 1.2 ng/mg‐liver
- Mortality ([2]; 0.357 mg/L measured, 21 d): 0.0%
- Mortality, number of dead fish ([2]; 0.357 mg/L measured, 21 d): 0
- Number of fertilized eggs (per female per day) ([2]; 0.357 mg/L measured, 21 d): 27 ± 3.5
- Number of total eggs (per female per day) ([2]; 0.357 mg/L measured, 21 d): 29 ± 3.3
- SSC female (joint plates with papillary processes) ([2]; 0.357 mg/L measured, 21 d): 0 ± 0
- Fertility rate ([2]; 1.90 mg/L measured, 21 d): 88 ± 7.7%
- Hepatic VTG, female ([2]; 1.90 mg/L measured, 21 d): 3,890 ± 992 ng/mg‐liver
- Mortality ([2]; 1.90 mg/L measured, 21 d): 0.0%
- Mortality, number of dead fish ([2]; 1.90 mg/L measured, 21 d): 0
- Number of fertilized eggs (per female per day) ([2]; 1.90 mg/L measured, 21 d): 24 ± 3.0
- Number of total eggs (per female per day) ([2]; 1.90 mg/L measured, 21 d): 28 ± 3.3
- SSC female (joint plates with papillary processes) ([2]; 1.90 mg/L measured, 21 d): 0 ± 0
- SSC male (joint plates with papillary processes) ([2]; 1.90 mg/L measured, 21 d): 99 ± 12
- Hepatic VTG, male ([2]; 1.90 mg/L measured, 21 d, sig. ↑ vs control): 153 ± 113 ng/mg‐liver
- Hepatic VTG, female ([2]; 9.75 mg/L measured, 21 d): 3,930 ± 963 ng/mg‐liver
- Mortality ([2]; 9.75 mg/L measured, 21 d): 13%
- Mortality, number of dead fish ([2]; 9.75 mg/L measured, 21 d): 3
- SSC female (joint plates with papillary processes) ([2]; 9.75 mg/L measured, 21 d): 0 ± 0
- SSC male (joint plates with papillary processes) ([2]; 9.75 mg/L measured, 21 d): 93 ± 15
- Hepatic VTG, male ([2]; 9.75 mg/L measured, 21 d, sig. ↑ vs control): 2,640 ± 1720 ng/mg‐liver
- Fertility rate [2, 9]: 78 ± 4.8%
- Number of fertilized eggs (per female per day) [2, 9]: 16 ± 2.3
- Number of total eggs (per female per day) [2, 9]: 20 ± 2.2
- Fecundity, number of total eggs (in words) ([2]; 21 d): statistically significant decrease
- LOEC, elevated hepatic VTG in males ([2]; 21 d): 1.90 mg/L
- Daily fecundity on the first day ([2]; Figure 3C): less than 10 eggs/female
- LOECREPRO [2]: 9,750 μg/L
- minimal effective concentration [2]: 1.9 µg/mL
- LOECREPRO (reduction in fecundity or fertility) ([2]; concentrations without overt toxicity): 9,750 μg/L
- LOECTOX [2]: ND (>9,750) μg/L
- GSI Female [2, 10]: 11.0 ± 1.2%
- GSI Male [2, 10]: 0.74 ± 0.18%
- HSI Female [2, 10]: 4.4 ± 0.44%
- HSI Male [2, 10]: 2.1 ± 0.16%
- Length Female [2, 10]: 37.0 ± 1.3 mm
- Length Male [2, 10]: 36.0 ± 0.5 mm
- Weight Female [2, 10]: 589 ± 39 mg
- Weight Male [2, 10]: 514 ± 28 mg
- GSI Female [2, 11]: 11.0 ± 0.9%
- GSI Male [2, 11]: 0.81 ± 0.06%
- HSI Female [2, 11]: 4.7 ± 0.59%
- HSI Male [2, 11]: 2.4 ± 0.21%
- Length Female [2, 11]: 36.2 ± 1.2 mm
- Length Male [2, 11]: 36.4 ± 1.3 mm
- Weight Female [2, 11]: 574 ± 27 mg
- Weight Male [2, 11]: 530 ± 47 mg
- GSI Female [2, 12]: 9.8 ± 0.9%
- GSI Male [2, 12]: 0.69 ± 0.15%
- HSI Female [2, 12]: 5.4 ± 0.38%
- HSI Male [2, 12]: 2.3 ± 0.60%
- Length Female [2, 12]: 36.6 ± 1.4 mm
- Length Male [2, 12]: 36.2 ± 1.1 mm
- Weight Female [2, 12]: 603 ± 47 mg
- Weight Male [2, 12]: 504 ± 62 mg
- Antagonistic activity ([3]; MAC = 1.0 × 10^−4 M): NE (MAC = 1.0 × 10^−4 M)^(D)
- Agonistic activity ([4]; MAC = 1.0 × 10^−4 M): NE (MAC = 1.0 × 10^−4 M)
- EC50 [5]: 70 µM
- In vitro positive: Esr [5]: Esr
